Test results taken from publication PMC8746705, “Comparison of Experimental Strategies to Study L-Type Amino Acid Transporter 1 (LAT1) Utilization by Ligands” (Molecules, 2021).
Where two headings read alike, the source gives them in different places.

Key:
LAT1 [1] = biological target: T1, LAT1 (Mus musculus, UniProt Q9Z127); experiment: Concentration-dependent cellular uptake into BV2 cells, Eadie–Hofstee analysis, Transport Type 1 (LAT1); assay type: cell-based
Procedure: For the concentration-dependent cellular uptake experiments, the BV2 cells on 24-well plates were incubated with studied compounds (1–200 μM) in pre-warmed HBSS buffer (250 μL) at 37 °C for 30 min. The experiment was then carried out as described for the time-dependent uptake above and the concentration of studied compounds in the cell lysate was analyzed by the LC-MS/MS methods described above and the results were normalized to the total protein concentration. The distinct transport mechanisms were separated from the Michaelis-Menten kinetics by using Eadie–Hofstee plot.
(§1) The studied compounds (1–15) were analyzed by using Agilent 1200 Series Rapid Resolution LC System together with an Agilent 6410 Triple Quadrupole Mass Spectrometer equipped with an electrospray ionization source (Agilent Technologies, Santa Clara, CA, USA). The chromatographic separations of analytes were achieved by using a reversed-phase Zobrax SB-C18 column (50 mm × 2.1 mm, 1.8 μm; Agilent Technologies, Santa Clara, CA, USA) by eluting the samples with 0.1% formic acid in water (A) and 0.1% formic in ACN (B). Labetalol and diclofenac were used as internal standards (ISTD) for the prodrugs and parent drugs, respectively. The transitions used for the quantification at the positive ion mode and chromatographic conditions of each compound and their parent drugs are listed in Table S1. The methods of compounds 1–11 have been reported earlier, while the methods of compounds 12–15 are reported herein for the first time.

LAT1 [2] = biological target: T1, LAT1; experiment: Cellular uptake of compounds in the presence of LAT1-inhibitor (KMH-233); assay type: cell-based; conditions: 100 µM compound, 100 µM KMH-233, 30 min, BV2
Procedure: The competitive uptake in the presence of LAT1-inhibitor (KMH-233) was carried out as described above with HBSS buffer solution containing 100 µM of the studied compounds. The cells were pre-incubated with 100 µM LAT1-inhibitor for 10 min and the incubation mixture was removed before adding the studied compound and LAT1-inhibitor on the cells. The competitive uptake (30 min) with the inhibitor was then carried out as the normal uptake described above. The amounts of studied compounds were analyzed by the LC-MS method and calculated from the spiked standard curve and normalized with the protein concentrations.

[3] = Stability / bioconversion of prodrugs to parent drugs (biological media, 0.1 M NaOH cell lysing); assay type: in vitro ADME; conditions: cell lysate samples for LC-MS/MS (Table S1 footnote)
Description: LAT1-utilizing prodrugs 1–15 (Figure 1) were selected for this study based on their ability to utilize LAT1 expressed in cells used in our previous studies. Therefore, the syntheses of these compounds are not described herein as they have been reported earlier. These compounds include prodrugs of an investigational immunosuppressive agent, perforin inhibitor (1), non-steroidal anti-inflammatory drugs (NSAIDs), ketoprofen (2–4, 14), salicylic acid (8), flurbiprofen (9 and 12), ibuprofen (10 and 13) and naproxen (11 and 15), as well as the polyphenolic antioxidant, ferulic acid (5–7). […] In addition, all NSAID prodrugs (compounds 2–4, 9–15) were prepared from their pure S-enantiomers. Prodrugs of ferulic acid (compounds 5–7) were mixtures of E- and […], which were interconvertible over time. […] Therefore, both prodrug and the released parent drug proportions were quantified and taken into account when calculating concentrations transported into the cells.
1. LC-MS/MS ionization parameters of compounds 1-15
Table S1. Ionization parameters for the LC-MS/MS methods of the studied compounds.
Precursor Product Fragmentor Collision Flow rate Gradient LLOQ
Compound ion ion(s) Voltage (V) Energy (mL/min) (A:B) (nM) […]
perforin inhibitor 1a and therefore, their transitions with a positive ion mode are reported only as KPF or as a prodrug and parent drug in parentheses. […]
drugs (ferulic acid (FA), flurbiprofen (FLB), ibuprofen (IBU), and naproxen (NPX), respectively), whose transitions with a negative ion mode are reported below the studied LAT1 -utilizing compounds i n parentheses.

LAT1 [4] = biological target: T1, LAT1; parameters: method as in earlier work; conditions: BV2 cells; probe [14C]-L-Leu; mean ± SD; published earlier; ref [31] or [33]; read-out: IC50 of [14C]-L-Leu uptake; cited from earlier work
LAT1 [5] = biological target: T1, LAT1; experiment: Inhibition type of [14C]-L-Leu uptake (Hanes-Woolf plots) in BV2 cells; assay type: cell-based; conditions: for Vmax of [14C]-L-Leu uptake: 0.010–0.20 µM [14C]-L-Leu in the presence of the compound at its IC50, mean ± SD, n = 3–4; for IC50: Table 2, compound concentration used in the inhibition type study, corresponding to IC50 of [14C]-L-Leu uptake; for Inhibition Type: of [14C]-L-Leu uptake, concluded from Km and Vmax
Procedure: (§2) After removal of the culture medium, the BV2 cells were carefully washed with pre-warmed HBSS (Hank’s balanced salt solution) containing 125.0 mM choline chloride, 4.8 mM KCl, 1.2 mM MgSO4, 1.2 mM KH2PO4, 1.3 mM CaCl2, 5.6 mM glucose, and 25.0 mM HEPES (pH 7.4 adjusted with 1 M NaOH). Pre-incubation was done with 500 μL of pre-warmed HBSS at 37 °C for 10 min before adding substrates (250 μL in HBSS) for the uptake experiments.
To evaluate the inhibition type of studied compounds, the BV2 cells were incubated with 0.010–0.20 μM [^14C]-L-leucine together with the studied compound. The concentration of compounds was selected according to the compound-specific IC50 values. The experiment was then carried out as described for the [^14C]-L-leucine uptake above and the radioactivity was measured by liquid scintillation counting. Hanes-Woolf plots were created by setting the ratio of initial substrate concentration to the reaction velocity ([S]/v) against [^14C]-L-leucine concentration (µM). The linear regression was used to calculate Km value (negative value of x-intercept) and Vmax value (1/slope) for [^14C]-L-leucine.

[6] = Time-dependent cellular uptake of compounds into BV2 cells (LC-MS/MS); assay type: cell-based, mouse; conditions: mouse, BV2 microglia cells, 100 µM compound, 1–60 min, mean ± SD, n = 3, read-out: T½ of cellular uptake
Procedure: (§3) For the time-dependent cellular uptake experiments, the BV2 cells on 24-well plates were incubated with studied compounds (100 μM) in a pre-warmed HBSS buffer (250 μL) at 37 °C for 1–60 min. Subsequently, the cells were washed three times with an ice-cold HBSS and lysed with 250 μL of NaOH (0.1 M) for 60 min. The lysates were diluted with acetonitrile (ACN) including the selected internal standard (diclofenac to all compounds) with a ratio of 1:3 and centrifuged at 10,000× g for 10 min. The samples were analyzed by the liquid chromatography-tandem mass spectrometric (LC-MS/MS) methods as described below. The concentrations of each compound in cell lysates were calculated from the standard curve that was prepared by spiking known amounts of compounds to ACN including the selected internal standard and then normalized with protein concentration. The protein concentrations on each plate were determined as a mean of three samples by Bio-Rad Protein Assay, based on the Bradford dye-binding method, using bovine serum albumin (BSA) as a standard protein and measuring the absorbance (595 nm) by multiplate reader (EnVision, Perkin Elmer, Inc., Waltham, MA, USA).
as §1

[7] = test system: immortalized mouse microglia (BV2); experiment: as above; assay type: cell-based; conditions: 100 µM compound, 1–60 min, mean ± SD, n = 3
Procedure: as §3, §1

LAT1 [8] = biological target: T1, LAT1; experiment: Cis-inhibition of radiolabelled LAT1-probe substrate uptake into BV2 cells; assay type: cell-based; conditions: 5 min, mean ± SD
Procedure: as §2
The ability of compounds 1–15 to inhibit the uptake of a known LAT1 substrate [^14C]-L-leucine was then evaluated by incubating the cells at 37 °C for 5 min in uptake buffer pH 7.4 (250 μL) containing 0.2 µCi/mL of [^14C]-L-leucine, or 2 µCi/mL of [^3H]-L-methionine, [^3H]-L-tryptophan or [^3H]-L-kynurenine (PerkinElmer, Waltham, MA, USA) and 0.1–1000 μM of the studied compound (or HBSS as blank). After incubation, the uptake was stopped by adding 250 µL of ice-cold HBSS, and the cells were washed two times with ice-cold HBSS. The cells were then lysed with 500 μL of NaOH (0.1 M) for 60 min and the lysate was mixed with 3.5 mL of Emulsifier safe cocktail (Ultima Gold, PerkinElmer, Waltham, MA, USA). The radioactivity in the cells was measured by liquid scintillation counting (MicroBeta^2 counter, PerkinElmer Waltham, MA, USA). Half of the maximum inhibitory concentration (IC50) values were calculated by nonlinear regression analysis (fitting the curve to log (concentration) vs. remaining normalized […]).

LAT1 [9] = biological target: T1, LAT1; experiment: LAT1 function followed between cell passages with [14C]-L-leucine; conditions: BV2 cells, passages 8–15
[10] = probe [3H]-L-Kynu, n = 3–4, read-out: IC50 of [3H]-L-Kynu uptake
[11] = probe [3H]-L-Met, n = 3–4, read-out: IC50 of [3H]-L-Met uptake
[12] = probe [3H]-L-Trp, n = 3–4, read-out: IC50 of [3H]-L-Trp uptake
[13] = 1–200 µM, 30 min, BV2, Eadie–Hofstee, mean ± SD, n = 3

T1 sequence (Q9Z127 whole entry): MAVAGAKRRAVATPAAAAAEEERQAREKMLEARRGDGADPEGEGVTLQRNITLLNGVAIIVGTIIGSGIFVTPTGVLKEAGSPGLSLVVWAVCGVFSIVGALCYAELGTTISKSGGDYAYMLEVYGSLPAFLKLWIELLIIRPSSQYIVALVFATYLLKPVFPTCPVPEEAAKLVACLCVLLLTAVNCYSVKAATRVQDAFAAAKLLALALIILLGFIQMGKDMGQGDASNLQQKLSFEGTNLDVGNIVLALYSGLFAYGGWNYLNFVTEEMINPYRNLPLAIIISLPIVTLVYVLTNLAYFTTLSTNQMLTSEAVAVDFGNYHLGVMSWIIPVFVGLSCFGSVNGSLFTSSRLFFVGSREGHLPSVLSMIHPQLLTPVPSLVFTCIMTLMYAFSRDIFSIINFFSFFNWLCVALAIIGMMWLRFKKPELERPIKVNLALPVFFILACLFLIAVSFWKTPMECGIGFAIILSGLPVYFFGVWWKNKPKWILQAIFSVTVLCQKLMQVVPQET
T1 sequence (P10852 whole entry partner): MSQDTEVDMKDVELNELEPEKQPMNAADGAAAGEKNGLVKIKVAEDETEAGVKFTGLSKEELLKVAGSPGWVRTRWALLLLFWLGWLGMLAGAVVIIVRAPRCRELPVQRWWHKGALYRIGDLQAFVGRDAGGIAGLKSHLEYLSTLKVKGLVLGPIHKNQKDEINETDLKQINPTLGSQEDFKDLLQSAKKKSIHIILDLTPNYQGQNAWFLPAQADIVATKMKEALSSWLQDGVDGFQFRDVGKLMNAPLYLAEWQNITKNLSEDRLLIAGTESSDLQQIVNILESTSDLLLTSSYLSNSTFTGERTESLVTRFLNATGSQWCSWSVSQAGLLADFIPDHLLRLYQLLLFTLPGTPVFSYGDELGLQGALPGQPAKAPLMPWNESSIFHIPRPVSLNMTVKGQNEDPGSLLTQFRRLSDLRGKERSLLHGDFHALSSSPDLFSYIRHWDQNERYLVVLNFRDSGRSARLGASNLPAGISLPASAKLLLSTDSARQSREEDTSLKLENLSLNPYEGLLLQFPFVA

Cellular uptake (LAT1 [1]; BV2 cells) | Cellular uptake in the presence of LAT1-inhibitor (LAT1 [2]) | Conversion to parent drug in the analysed samples [3] | Vmax of [14C]-L-Leu uptake (LAT1 [5]; BV2) [nmol/min/mg] | IC50 (LAT1 [5]) [µM] | Inhibition Type (LAT1 [5]; BV2) | half-life at 100 μM [6] [min] | IC50 (LAT1 [8]; [10]) [µM] | IC50 (LAT1 [8]; [11]) [µM] | IC50 (LAT1 [8]; [12]) [µM] | Km (LAT1 [1]; [13]) [µM] | Transport Type 1 (LAT1) Vmax (LAT1 [1]; [13]) [pmol/mg/min] | Vmax of [14C]-L-leucine uptake (LAT1 [9]) [nmol/min/mg protein] | Km (LAT1 [9]; read-out: Km of [14C]-L-leucine uptake) [µM] | Vmax of [14C]-L-Leu uptake (control) (LAT1 [5]; 0.010–0.20 µM [14C]-L-Leu alone, no compound, BV2) [nmol/min/mg] | Km (LAT1 [5]; 0.010–0.20 µM [14C]-L-Leu alone, no compound, BV2, read-out: Km of [14C]-L-Leu uptake (control)) [µM] | SMILES | IC50 (LAT1 [4]) [µM] | Max. cellular uptake [7]
highest cellular uptake | only reductive trends were seen | fully converted into ketoprofen | 2.622 ± 0.268 | 53 | Mixed type | 2.2 ± 0.62 | 91.5 ± 1.2 | 32 ± 1.4 | 37.6 ± 1.7 |  |  |  |  |  |  | C[C@H](C(=O)OCc1ccc(C[C@@H](N)C(=O)O)cc1)c1cccc(C(=O)c2ccccc2)c1 [Compound 14] | 52.9 ± 1.3 | 10.20 ± 0.61 nmol/mg of protein
 | inhibited significantly | partly converted to their parent | 2.186 ± 0.231 | 5 | Mixed type | 3.6 ± 1.47 | 9.7 ± 1.2 | 9.8 ± 1.4 | 36.3 ± 1.2 | 8.2 ± 1.8 | 63 ± 8 |  |  |  |  | CC(C)Cc1ccc([C@H](C)C(=O)Oc2cccc(C[C@H](N)C(=O)O)c2)cc1 [Compound 13] | 5.3 ± 1.2 | 25.90 ± 2.41 nmol/mg of protein
 |  |  |  |  |  |  |  |  |  |  |  | 0.84 ± 0.12 | 85.8 ± 19.4 | 3.403 ± 0.055 | 0.115 ± 0.007 | CC(C)C[C@H](N)C(=O)O [L-Leu (Crtl), L-leucine, reference compound] |  | 
